{"source": "patent US9730949B2", "about": "“Angiotensin converting enzyme inhibitors for treating optic neuropathy or congenital optic atrophy” (priority 2012, dated 2017)", "type_in_all_cases": "in vivo, human", "key": {"[1]": {"tested_on": "optic neuropathy or congenital optic atrophy", "experiment": "Other ACE inhibitors in patients with the same optic neuropathy or congenital optic atrophy as in Examples 1 to 5", "conditions": "patients as in Examples 1 to 5, similar procedures; present tense, no data", "method": "Fosinoprilate, trandolaprilate, moexiprilate, quinaprilate, enalaprilate, perindoprilate and benazeprilate, as well as captopril and lisinopril are also tested in patients having the same optic neuropathy or congenital optic atrophy as in Examples 1 to 5 using similar procedures."}, "Leber's optic neuropathy": {"tested_on": "Leber's optic neuropathy", "experiment": "Visual acuity after treatment in patients with Leber's optic neuropathy", "conditions": "intravitreal 2% (w/v), 0.1 to 0.2 ml, once every 15 days, three injections", "method": "Patient two has Leber's optic neuropathy with a visual acuity of 1/20 in the right eye and zero in the left eye prior to treatment.\nAn intraocular injection (intravitreal) of 2% (w/v) ramiprilate in a quantify of 0.1 to 0.2 ml, which was injected once every 15 days for a total of three injections. The visual acuity was measured after this treatment. The results of 2/10 in the right eye and 1/20 in the left eye were achieved,\nPatient one has Leber's optic neuropathy and had only bright perceptions in two eyes. Visual acuity was measured prior to treatment.\nAn intraocular injection (intravitreal) of 2% (w/v) ramiprilate in a quantity of 0.1 to 0.2 ml, which was infected once every 15 days for a total of three injections. The visual acuity was measured after this treatment. The visual acuity was 2/10 for both eyes."}, "[2]": {"tested_on": "bilateral asymmetric anterior optic neuropathy ischemia", "experiment": "Visual acuity after treatment in a patient with anterior optic neuropathy ischemia", "conditions": "patient three; intravitreal 2% (w/v), 0.1 to 0.2 ml, once every 15 days, three injections; 1/10 in both eyes prior to treatment", "method": "FIGS. 3 and 4 show a fluoangiography of MM before treatment.\nMM was administered an intravitreal injection of 2% (w/v) ramiprilate in a quantify of 0.1 to 0.2 ml, which was injected once every 15 days for a total of three injections. The visual acuity was then taken and was 5/10 for both eyes."}, "[3]": {"tested_on": "dominant recessive congenital optic atrophy", "experiment": "Visual acuity after treatment in patients with dominant recessive congenital optic atrophy", "conditions": "2 patients; eye drops 2% (w/v), 2 times per day for 3 months", "method": "2 patients that have dominant recessive congenital optic atrophy had bad visual acuity.\nThese 2 patients were treated with eye drops containing 2% (w/v) ramiprilate 2 times per day for a duration of 3 months."}, "[4]": {"tested_on": "central artery occlusion of the retina", "experiment": "Visual acuity after treatment in patients with central artery occlusion of the retina", "method": "FIG. 5 is a fundus photograph of patient four before treatment.\n(§1) One was administered 2% (w/v) ramprilate in an eye drop formulation twice a day for 3 months, while the other was administered 2% (w/v) ramprilate in via an intravitreal injection ramiprilate in a quantity of 0.1 to 0.2 ml, which was injected once every 15 days for a total of three injections."}, "[5]": {"tested_on": "toxication by ingestion of methyl alcohol", "experiment": "Visual acuity after treatment in patients with toxication by ingestion of methyl alcohol", "method": "2 patients (SR and WW) suffering from toxication by ingestion of methyl alcohol has bad visual acuity. FIG. 6 is a fluoangiography of SR prior to treatment. FIG. 7 is an optical coherence tomography scan of SR before treatment.\nas §1, with “One patient” for “One”, “other patient” for “other”"}}, "data": [{"smiles": "COc1cc2c(cc1OC)CN(C(=O)[C@H](C)N[C@@H](CCc1ccccc1)C(=O)O)[C@H](C(=O)O)C2", "note": "[moexiprilate]", "values": [{"measurement": "visual acuity", "setting": "[1]", "result": "improvement in visual acuity"}]}, {"smiles": "CCC[C@H](N[C@@H](C)C(=O)N1[C@H](C(=O)O)C[C@@H]2CCCC[C@@H]21)C(=O)O", "note": "[perindoprilate]", "values": [{"measurement": "visual acuity", "setting": "[1]", "result": "improvement in visual acuity"}]}, {"smiles": "C[C@H](N[C@@H](CCc1ccccc1)C(=O)O)C(=O)N1[C@H](C(=O)O)C[C@H]2CCCC[C@@H]21", "note": "[trandolaprilate]", "values": [{"measurement": "visual acuity", "setting": "[1]", "result": "improvement in visual acuity"}]}, {"smiles": "C[C@H](N[C@@H](CCc1ccccc1)C(=O)O)C(=O)N1CCC[C@H]1C(=O)O", "note": "[enalaprilate]", "values": [{"measurement": "visual acuity", "setting": "[1]", "result": "improvement in visual acuity"}]}, {"smiles": "C[C@H](N[C@@H](CCc1ccccc1)C(=O)O)C(=O)N1Cc2ccccc2C[C@H]1C(=O)O", "note": "[quinaprilate]", "values": [{"measurement": "visual acuity", "setting": "[1]", "result": "improvement in visual acuity"}]}, {"smiles": "O=C(O)CN1C(=O)[C@@H](N[C@@H](CCc2ccccc2)C(=O)O)CCc2ccccc21", "note": "[benazeprilate]", "values": [{"measurement": "visual acuity", "setting": "[1]", "result": "improvement in visual acuity"}]}, {"smiles": "C[C@H](CS)C(=O)N1CCC[C@H]1C(=O)O", "note": "[captopril]", "values": [{"measurement": "visual acuity", "setting": "[1]", "result": "improvement in visual acuity"}]}, {"smiles": "CC(NC(CCc1ccccc1)C(=O)O)C(=O)N1C(C(=O)O)CC2CCCC21", "note": "(stereo not drawn) [ramiprilate]", "values": [{"measurement": "visual acuity, both eyes, after treatment", "setting": "Leber's optic neuropathy; patient one, only bright perceptions in two eyes before", "result": "2/10"}, {"measurement": "visual acuity, right eye, after treatment", "setting": "Leber's optic neuropathy; patient two, 1/20 prior to treatment", "result": "2/10"}, {"measurement": "visual acuity, left eye, after treatment", "setting": "Leber's optic neuropathy; patient two, zero prior to treatment", "result": "1/20"}, {"measurement": "visual acuity, both eyes, after treatment", "setting": "[2]", "result": "5/10"}, {"measurement": "vision as indicated by visual acuity", "setting": "[3]", "result": "greatly improved"}, {"measurement": "vision as indicated by visual acuity", "setting": "[4]; one patient (alpha), eye drop formulation 2% (w/v) twice a day for 3 months", "result": "improvement in vision"}, {"measurement": "vision as indicated by visual acuity", "setting": "[4]; other patient (alpha), intravitreal 2% (w/v), 0.1 to 0.2 ml, once every 15 days, three injections", "result": "improvement in vision"}, {"measurement": "vision as indicated by visual acuity", "setting": "[5]; one patient (beta), eye drop formulation 2% (w/v) twice a day for 3 months", "result": "improvement in vision"}, {"measurement": "vision as indicated by visual acuity", "setting": "[5]; other patient (beta), intravitreal 2% (w/v), 0.1 to 0.2 ml, once every 15 days, three injections", "result": "improvement in vision"}]}, {"smiles": "NCCCC[C@H](N[C@@H](CCc1ccccc1)C(=O)O)C(=O)N1CCC[C@H]1C(=O)O", "note": "[lisinopril]", "values": [{"measurement": "visual acuity", "setting": "[1]", "result": "improvement in visual acuity"}]}, {"smiles": "O=C(O)[C@@H]1C[C@@H](C2CCCCC2)CN1C(=O)CP(=O)(O)CCCCc1ccccc1", "note": "[Fosinoprilate, fosinoprilate]", "values": [{"measurement": "visual acuity", "setting": "[1]", "result": "improvement in visual acuity"}]}]}
